{
  "source": "paper PMC6014988",
  "about": "“Precision therapeutic targeting of human cancer cell motility” (Nature Communications, 2018)",
  "key": {"[1]": {"assay": "Three-day MTT cell growth inhibition assay, 1542NPTX", "format": "cell-based, human", "conditions": "human, 1542NPTX cells"}, "1542NPTX": {"test_system": "1542NPTX", "assay": "Three-day MTT cell growth inhibition assay, 1542NPTX", "format": "cell-based, human", "conditions": "Homo sapiens, 72 h, 3 days"}, "MKK4": {"target": "MKK4 (Homo sapiens, UniProt P45985)", "sequence (P45985 whole entry)": "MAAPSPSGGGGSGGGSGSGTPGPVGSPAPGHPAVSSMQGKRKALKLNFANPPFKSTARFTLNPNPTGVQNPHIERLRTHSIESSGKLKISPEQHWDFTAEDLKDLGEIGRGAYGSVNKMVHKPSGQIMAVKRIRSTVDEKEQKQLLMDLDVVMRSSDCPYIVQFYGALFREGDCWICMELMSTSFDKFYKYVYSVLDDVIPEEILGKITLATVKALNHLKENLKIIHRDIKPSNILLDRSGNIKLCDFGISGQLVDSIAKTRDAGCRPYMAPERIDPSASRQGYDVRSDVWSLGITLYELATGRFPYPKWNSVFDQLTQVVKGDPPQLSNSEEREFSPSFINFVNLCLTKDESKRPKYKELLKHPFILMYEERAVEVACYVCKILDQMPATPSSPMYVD", "assay": "MKK4 in vitro kinase assay", "format": "biochemical", "protocol": "MEK4/MKK4/MAP2K4 in vitro kinase assay was performed as described by us[45].\nSupplementary Figure 9. […] (a) Depiction of […]\nestablished MKK4 pathway regulating human PCa cell metastasis. […]\nto MKK4, as measured by fluorescence-based thermal shift assay. Values are the mean±SD (of N=2 replicates) increase in melting temperature (ΔTm) of purified recombinant MKK4 induced by the indicated concentrations of KBU2046 or genistein. […]\nin an in vitro kinase assay. The indicated concentrations of KBU2046 were added to recombinant activated MKK4, and its ability to phosphorylate kinase dead p38α MAPK (K53A) was measured by Western blot for total (p38 MAPK) and phosphorylated (pp38 MAPK) forms of […]\nHSP27 in cells. PC3-M cells were pre-treated for 24 hours with 50 µM KBU2046 or genistein, as indicated, then with TGFβ, and Western blot performed. All findings are from a single experiment, with similar findings in identical separate experiments, repeated at least once. […]"}, "200 different kinases": {"test_system": "200 different kinases", "assay": "Kinex kinase assay system", "format": "biochemical, human", "conditions": "1 and 10 μM; 10 μM interfered with readout", "from_the_text": "There were two initial false positives (for a false positive rate of 0.4%), that were subsequently found to be negative in a dedicated follow up analysis. Specific and important negative findings include MKK4, p38 MAPK (α, β, γ and δ […]\nby competing for phospho-acceptor binding.\nKinase assay system #2. The Kinex™ kinase assay system (Kinexus Proteomics Company).\nThis platform uses recombinant human protein kinases expressed in an insect expression system, thus allowing an avenue for post-translational modification. Also, this platform measures inhibition of ATP binding. This platform putatively measured 200 different kinases, and we […]\ntested KBU2046 at 1 and 10 μM. […] There were two […]\nimportant technical issues. First, at 10 μM KBU2046 interfered with the colorimetric-based […]\nHowever, while considering the above factors, this screen was informative for a number of […]\nfunction by competing for ATP binding in the active site.\nKinase assay system #3. KinaseProfiler™ and PhosphataseProfiler™ assay platforms (Millipore). This platform is radiometric-based (considered gold standard). It measures competition with respect to ATP for kinases and substrate protein for phosphatases. Most proteins were expressed via an insect-based system, and it evaluates a panel of 284 kinases and 20 phosphatases. There were two initial false positives, for a false positive rate of 0.7%, but both […]"}, "[2]": {"target": "T1, cysteine and glycine-rich protein 1 (Homo sapiens, UniProt P21291)", "T1 construct": "purchased Invitrogen", "T1 sequence (P21291 whole entry)": "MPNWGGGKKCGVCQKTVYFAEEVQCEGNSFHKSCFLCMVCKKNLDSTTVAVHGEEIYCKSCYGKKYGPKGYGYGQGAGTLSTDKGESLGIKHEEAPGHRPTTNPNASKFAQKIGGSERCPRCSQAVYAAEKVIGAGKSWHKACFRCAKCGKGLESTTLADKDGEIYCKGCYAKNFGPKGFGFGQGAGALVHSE", "assay": "ProtoArray binding, cysteine and glycine-rich protein 1", "conditions": "10 fold excess free KBU2046", "protocol": "The ProtoArray® assay, using the Human Protein Microarray platform, was performed by Invitrogen. […]\nfollowed by detection with FITC-streptavidin, and visualization by fluorescent microscopy (with equal exposure times). (d) Protein array hybridization. KBU2046-biotin was hybridized to ProtoArray® Human Protein Microarray’s at 0.5 and 10 µM with and without 10 fold excess free KBU2046. We first sought proteins that met the following criteria, and did so at both 0.5 and 10 µM concentrations of KBU2046-biotin (in the absence of free KBU2046): Z-Score greater than 2.5, Z-Factor greater than 0.5, CI P-value less than 0.05, negative control value <2,000 (relative fluorescence units; RFUs), and a signal/negative control signal of >10 and >5 for 10 µM and 0.5 µM conditions, respectively. This yielded 3 proteins, shown in table, for an initial hit rate of 0.03%. We then required free KBU2046 to inhibit binding by >75%. Of the two remaining candidates, we eliminated isovaleryl-CoA dehydrogenase (ICD). Its binding signal doubled on […]\nsuspected non-specific binding by the biotin-linker moiety. We deemed cysteine and glycine-rich protein 1 (CSRP1) our top priority protein, though its binding characteristics at 10 µM + free KBU2046 were similar to ICD, albeit not as extreme. We thus evaluated whether KBU2046- […]\nThere were two additional notable findings from protein array studies. […]"}, "[3]": {"assay": "Schiff-base formation with L-alanine, NMR", "format": "physicochemical", "conditions": "27°C (18 h) then 37°C, total 72 hours", "from_the_text": "Response to Reviewers' comments:\nWe wish to thank reviewers for their time and thoughtful review. Please find below point-by-point responses to reviewer queries. Associated changes in the manuscript are underlined.\nReviewer (your email indicates #3, the review letter indicates #4):\n1. While Schiff-base formation may be reversible, the reverse reaction may not occur during the life of the protein. Considering KBU2046’s binding affinity is proposed to be driven by a single H-bonding interaction with the carbonyl in question, studies should be conducted to ensure the formation of a Schiff base is not occurring.\nResponse. To specifically examine Schiff-base formation, we incubated KBU2046 with L-alanine at 27°C (18 h) and then 37°C for a total 72 hours, and observed no change in 1H or 13C NMR spectra of drug from the original observed spectra for KBU2046 alone. This exposure […]\nproduct in the presence of a biologically relevant, representative primary amine. These studies were conducted by co-author Karl Scheidt, Professor of chemistry at Northwestern University.\nAttached to this letter is a detailed description of the experiment.\nThese new experimental findings are concordant with our other findings presented in the manuscript. […]"}},
  "data": [
    {"smiles": "O=C1c2ccccc2OCC1c1ccc(F)cc1", "note": "(racemic) [KBU2046, (±)-3(4-fluorophenyl)chroman-4-one]", "values": [
      {"measurement": "viability at 3 days, 50 µM", "setting": "[1]", "result": 107, "unit": "%"},
      {"measurement": "IC20", "setting": "1542NPTX", "result": "> 50", "unit": "µM"},
      {"measurement": "IC50", "setting": "1542NPTX", "result": "> 50", "unit": "µM"},
      {"measurement": "inhibition of MKK4 kinase activity", "setting": "MKK4", "result": "nor inhibit its kinase activity"},
      {"measurement": "inhibition of ATP binding", "setting": "200 different kinases", "result": "completely negative"},
      {"measurement": "% inhibition by competitor", "setting": "[2]; 0.5 uM KBU2046-biotin", "result": 79, "unit": "%"},
      {"measurement": "% inhibition by competitor", "setting": "[2]; 10 uM KBU2046-biotin", "result": 33, "unit": "%"},
      {"measurement": "change in 1H or 13C NMR spectra (Schiff-base formation)", "setting": "[3]", "result": "no change"}
    ]}
  ]
}
